Measurements published in patent publication US11175282B2, “Method for predicting and monitoring clinical response to immunomodulatory therapy” (BIOHOPE Scientific Solutions for Human Health S.L., priority 2017, dated 2021).

Assays:
[1] = tested on: Human activated PBMC; experiment: Disc diffusion assay in semisolid media (agarose 0.5% / collagen 0.3% hydrogels), 6 well plates, resazurin read-out; format: cell-based; conditions: different disc loads, FIG. 12
Method: PBMC T-Cells were activated though incubation with Dynabeads Human T-activator CD3/CD28 agonistic antibodies (Thermo Fisher, cat #111.32D) using a ratio 1:2 (dynabeads:PBMC) in a cell culture bottle. PBMC in the absent of dynabeads were also cultured as negative control of stimulation.
Paper discs of 6 mm diameter discs were used as immunosuppressant delivery units. Discs were obtained from manual drill of Whatman™, 3 mm CHR chromatography paper sheet or using ready to use commercial paper disc (DDbiolab). Discs were sterilized by autoclave. Immunosupressant drugs (Sigma Aldrich) was dissolved in pure ethanol (Sigma Aldrich) at 20 mg/ml and stored as stock solution at −20° C. till use. […]
Resazurin (blue) transition to resofurin (pink) was monitored with the naked eye or checked after overnight incubation depending on assay design. […] Results were collected through images acquisition with visible light (Sanyo camera S1070 and E1075), ultraviolet light (UVltec Geldoc Gel Light Imaging System) and fluorescence microplate multyreader (PHERAstar® FSX Multimode Microplate Reader from BMG LABTECH or Spark® 10M Tecan.). Inhibitory gradients halos or fronts induced by discs loaded with immunosuppressants were quantified with ImageJ software in a semi-automated process or Spark control v1.2.25 software. […]

[2] = tested on: stimulated human PBMCs; experiment: Liquid media serial dilution assay in standard 96 well microplate, resazurin read-out; format: cell-based
Method: Human PBMC were extracted for Buffy coat bags from blood bank volunteer donation using density gradient centrifugation in adequate hydrophilic isosmotic polysaccharide solutions with a density of 1.077 g/ml (Pancoll, PAN BIOTECH GmbH or Ficoll, GE Healthcare) at 760 G during 20 minutes at RT. Cells were extracted with pipette from the gradient interphase and then washed in HBSS w/o Ca, Mg and Phenol red (Lonza), and resuspended in X-VIVO 15 (Lonza) medium. Obtained cells were frozen in cryovials with serum free medium (Profreeze-CDM, Lonza) DMSO (Sigma Aldrich) 7.5% and storage until use in liquid nitrogen.
A few days later, removed vials from liquid nitrogen were immediately thawed in a 37° C. water bath for 2 minutes. […] After supernatant discard, cells were re-suspended in X-VIVO medium for further count and viability quantification.
After thawing PBMCs viability was quantified by trypan blue and Neubauer chamber. […]
After 10-12 hours of incubation with presto blue, 100 ul of each well were transferred to a 96 well ELISA plate, and then absorbance at 570 and 620 nm wavelength was quantified in a robotic absorbance microplate reader (Tekan, Infinite F50). Final values were obtained as result of absorbance at 570 nm minus absorbance at 620 nm, following instructions from presto blue manufacturer (Thermo Fisher). […]

[3] = tested on: renal transplanted patient PBMCs; experiment: Immunobiogram: disc diffusion gradient in collagen-methylcellulose hydrogel in 12 channelled well plates, clinical study; format: cell-based, human; conditions: patient 211; compared with tacrolimus and prednisone curves; FIG. 31
Method: A multicenter study was conducted with a cohort of 70 renal transplant recipient patients, also 10 healthy volunteers were included for comparison purposes. The inclusion criteria consisted in men and women aged over 18 years with kidney transplant performed at least 1 year prior to inclusion. Patients present different defined and registered immunological risk profiled when included. Transplant patient clinical history includes complete recording of previous and updated immunological relevant data at the inclusion time.
Sample collection for the immunobiogram implementation consisted in two sodium heparin Vacutainer® tubes. Human PBMCs extraction from blood sample was performed using density gradient centrifugation (760 G during 15-20 minutes at RT) in adequate hydrophilic isosmotic polysaccharide solutions with a density of 1.077 g/ml (Pancoll, PAN BIOTECH GmbH or Ficoll, GE Healthcare). Cells were extracted with pipette from the gradient interphase and then washed in HBSS w/o Ca, Mg and Phenol red (Lonza), and resuspended in X-VIVO 15 (Lonza) medium. Obtained cells were frozen in cryovials with serum free medium (Profreeze-CDM, Lonza) DMSO (Sigma Aldrich) 7.5% and storage in liquid nitrogen until use. […] After the supernatant was discarded, cells were re-suspended in X-VIVO medium for further count and viability quantification. […]

[4] = general solubility profile, no test described; cited from earlier work

Row | SMILES | inhibitory halos over activated human PBMC [1] | recovery of PBMC proliferative capacity versus positive control ([2]; 96 standard wells microplate serial dilutions, all concentration tested, even femtomolar, FIGS. 14 and 15) | inhibitory effect over stimulated human PBMCs ([2]; standard wells, all the concentrations tested (even at femtomolar levels)) | Immunobiogram response curve [3] | aqueous solubility [4]
1 | CO[C@H]1C[C@@H]2CC[C@@H](C)[C@@](O)(O2)C(=O)C(=O)N2CCCC[C@H]2C(=O)O[C@H]([C@H](C)C[C@@H]2CC[C@@H](OCCO)[C@H](OC)C2)CC(=O)[C@H](C)/C=C(\C)[C@@H](O)[C@@H](OC)C(=O)[C@H](C)C[C@H](C)/C=C/C=C/C=C/1C [Everolimus] | Dose dependant inhibitory halos | did not recover proliferative capacity comparable with positive control level | at least some inhibitory level effect |  | 
2 | COc1c(C)c2c(c(O)c1C/C=C(\C)CCC(=O)OCCN1CCOCC1)C(=O)OC2 [MMF, micofenolate] |  |  |  | less responsive | 
3 | COc1c(C)c2c(c(O)c1C/C=C(\C)CCC(=O)O)C(=O)OC2 [Mycophenolic acid, Mycophenolic Acid] | Dose dependant inhibitory halos |  |  |  | good aqueous solubility
